Source: US4950677A, “Benzimidazole derivative compounds and method of making” (Hoffmann-La Roche Inc., priority 1987, dated 1990)
Where two headings read alike, the source gives them in different places.

Key:
[1] = test system: indomethacin-induced lesions of the stomach; experiment: anti-ulcer activity (protection from indomethacin-induced stomach lesions); assay type: in vivo; details: Rattus norvegicus, po, male rats, given 1 hour before and 2 hours after 20 mg/kg indomethacin p.o.; dosage protecting 50% of animals from lesions
Protocol: The experimental procedure described hereinafter was used to determine the anti-ulcer activity:
A number of groups of 8 male rats each with a body weight of 130-150 g are used for each dosage of a test substance. Prior to the beginning of the experiment the animals receive no food for 24 hours, but receive water ad libitum. Various dosages of the substances to be tested (suspended in 0.5% tragacanth) or the vehicle alone (controls) are administered twice perorally, namely. 1 hour before and 2 hours after the peroral administration 20 mg/kg of indomethacin. In the control animals, this dosage of indomethacin leads to lesions of the stomach within 5 hours. The animals are killed 6 hours after the first administration of the substance under investigation (or of the vehicle alone). The rats which remain protected from the occurrence of macroscopically visible lesions to the mucous membrane of the stomach are counted. The ED50 is that dosage of a test substance at which 50% of the animals are protected from the occurence of such lesions.
(§1) In the following Table there are given for a series of representative compounds of formula I the results of the testing with respect to their anti-ulcer activity and to their gastric secretion inhibiting activity. Moreover, this Table contains data concerning the acute toxicity (LD50 in the case of single oral administration to mice).

[2] = test system: gastric acid production caused by 4-methylhistamine; experiment: gastric acid secretion-inhibiting activity (4-methylhistamine-stimulated, Heidenhain pouch); assay type: in vivo; details: Canis lupus familiaris, po; p.o. (dry powder in gelatin capsules), conscious beagle hounds, i.v. infusion of 4-methylhistamine; 50% inhibition vs controls
Protocol: The experimental procedure described hereinafter was used to determine the gastric acid secretion-inhibiting activity:
A part of the stomach fundus of female and male beagle hounds is separated from the remainder of the stomach in the form of a pouch of the Heidenhain type by a modification of the method described in Rudick et al., J. Surgical Research 7, 383-398 (1967). In the pouch there is fitted a steel cannula which is conducted externally through the abdominal wall. Before each experiment the animals receive no food for 18 hours, but receive water ad libitum. They are conscious and standing during the experiment and their gastric acid secretion is stimulated by the intravenous infusion of 4-methylhistamine, a selective […] of the histamine H2 -receptors. The gastric acid production is determined in 15 minute fractions of the stomach pouch juice. As soon as the gastric acid production has a constant value, the substances to be tested are administered orally as a dry powder filled into gelatin capsules. The ED50 is that dosage of a test substance which brings about a 50% inhibition of the gastric acid production caused by 4-methylhistamine in the treated animals in comparison to the controls.
as §1

[3] = acute toxicity (single oral administration); details: mouse, in vivo, read-out: Toxicity LD 50
From the text: as §1

[4] = p.o., single oral administration to mice

Molecule `COc1cc[n+](-c2nc3ccc(C(F)(F)F)cc3[nH]2)c(CSCC(C)(C)OCCO)c1C.CS(=O)(=O)[O-]` [A, 2-[[[2-(2-Hydroxyethoxy)-2-methylpropyl]thio]-methyl]-4-methoxy-3-methyl-1-[5-(trifluoromethyl)-2-benzimidazolyl]pyridinium methanesulfonate] has an ED50 [1] of 4.4 mg/kg, an ED50 [2] of 4.9 mg/kg and an LD50 [3, 4] of 2500 to 5000 mg/kg.

For `COc1cc[n+](-c2nc3cc(C(F)(F)F)ccc3[n-]2)c(CSCC(C)(C)OCCO)c1C` [B, Intramolecularly deprotonized 2-[[[2-(2-hydroxyethoxy)-2-methylpropyl]thio]methyl]-4-methoxy-3-methyl-1-[5-(trifluoromethyl)-2-benzimidazolyl]pyridinium cation], the ED50 [1] was 6.1 mg/kg, the ED50 [2] was 3.9 mg/kg and the LD50 ([3]; po) was 2500 to 5000 mg/kg.

In the case of `COCCOC(C)(C)CSCc1c(C)c(OC)cc[n+]1-c1nc2ccc(C(F)(F)F)cc2[nH]1.CS(=O)(=O)[O-]` [C, 4-Methoxy-2-[[[2-(2-methoxyethoxy)-2-methylpropyl}thio]methyl]-3-methyl-1-[5-(trifluoromethyl)-2-benzimidazolyl]pyridinium methanesulfonate], the ED50 [1] is reported as 6 mg/kg, the ED50 [2] is reported as 5.5 mg/kg and the LD50 [3, 4] is reported as 1000 to 2000 mg/kg.

`COCCOC(C)(C)CSCc1c(C)c(OC)cc[n+]1-c1nc2cc(C(F)(F)F)ccc2[n-]1` [D, Intramolecularly deprotonized 4-methoxy-2-[[[2-(2-methoxyethoxy)-2-methylpropyl]thio]methyl]-3-methyl-1-[5-(trifluoromethyl)-2-benzimidazolyl]pyridinium cation] gave an ED50 [1] of 7 mg/kg, an ED50 [2] of 4.8 mg/kg and an LD50 ([3]; po) of 2500 to 5000 mg/kg.

Work on `COc1cc[n+](-c2nc3ccc(C(F)(F)F)cc3[nH]2)c(CSCC(C)(C)OC(C)=O)c1C.CS(=O)(=O)[O-]` [E, 2-[[(2-Acetoxy-2-methylpropyl)thio]methyl]-4-methoxy-3-methyl-1-[5-(trifluoromethyl)-2-benzimidazolyl]pyridinium methanesulfonate] yielded an ED50 [1] of 3.2 mg/kg, an ED50 [2] of 3 mg/kg and an LD50 [3, 4] of 2500 to 5000 mg/kg.

With `COc1cc[n+](-c2nc3ccc(C(F)(F)F)cc3[nH]2)c(CSCC(C)(C)OC(C)=O)c1C.[Cl-]` [F, 2-[[(2-Acetoxy-2-methylpropyl)thio]methyl]-4-methoxy-3-methyl-1-[5-(trifluoromethyl)-2-benzimidazolyl]pyridinium chloride] the ED50 [1] was 1.9 mg/kg, the ED50 [2] was 1.8 mg/kg and the LD50 [3, 4] was 1250 to 2500 mg/kg.

`COc1cc[n+](-c2nc3cc(C(F)(F)F)ccc3[n-]2)c(CSCC(C)(C)OC(C)=O)c1C` [G, Intramolecularly deprotonized 2-[[(2-acetoxy-2-methylpropyl)thio]methyl]-4-methoxy-3-methyl-1-[5-(trifluoromethyl)-2-benzimidazolyl]pyridinium cation] gave an ED50 [1] of 2.8 mg/kg, an ED50 [2] of 1.5 mg/kg and an LD50 ([3]; po) of 2500 to 5000 mg/kg.

`CCOC(C)(C)CSCc1c(C)c(OC)cc[n+]1-c1nc2ccc(C(F)(F)F)cc2[nH]1.CS(=O)(=O)[O-]` [H, 2-[[(2-Ethoxy-2-methylpropyl)thio]methyl]-4-methoxy-3-methyl-1-[5-(trifluoromethyl)-2-benzimidazolyl]pyridinium methanesulfonate] showed an ED50 [1] of 3.2 mg/kg and an ED50 [2] of 4.3 mg/kg.

`CCOC(C)(C)CSCc1c(C)c(OC)cc[n+]1-c1nc2ccc(C(F)(F)F)cc2[nH]1.[Cl-]` [I, 2-[[(2-Ethoxy-2-methylpropyl)thio]methyl]-4-methoxy-3-methyl-1-[5-(trifluoromethyl)-2-benzimidazolyl]pyridinium chloride] gave an ED50 [1] of 4.1 mg/kg, an ED50 [2] of 3.8 mg/kg and an LD50 [3, 4] of 2500 to 5000 mg/kg.

`CCOC(C)(C)CSCc1c(C)c(OC)cc[n+]1-c1nc2cc(C(F)(F)F)ccc2[n-]1` [J, Intramolecularly deprotonized 2-[[(2-ethoxy-2-methylpropyl)thio]methyl]-4-methoxy-3-methyl-1-[5-(trifluoromethyl)-2-benzimidazolyl]pyridinium cation] gave an ED50 [1] of 4.6 mg/kg, an ED50 [2] of 3.7 mg/kg and an LD50 ([3]; po) of over 5000 mg/kg.
